# From ChEMBL document CHEMBL4680129, “Hit-to-lead optimization of novel 2-alkylaminomethylquinoline derivatives as anti-chagas agents” (Eur J Med Chem, 2020)
# The source made the active and inactive calls. The rule behind the calls is not given here.
# Key:
# Trypanosoma cruzi [1] = assay: Anti-chagasic activity against Trypanosoma cruzi trypomastigotes infected in C3H mouse assessed as reduction in parasitemia at 50 mg/kg, po treated 10 days post infection for 7 consecutive days by Neubauer chamber counting method relative to control; assay type: functional; conditions: time 7.0 day
# Trypanosoma cruzi [2] = assay: Anti-chagasic activity against Trypanosoma cruzi trypomastigotes infected in C3H mouse assessed as increase in body weight at 10 mg/kg, po treated 10 days post infection measured on day 19 (reference value: -1.8%); assay type: functional; conditions: time 9.0 day
# [3] = Toxicity in C3H mouse infected with Trypanosoma cruzi trypomastigotes assessed as mortality at 10 to 50 mg/kg, po treated 10 days post infection for 7 consecutive days; assay type: organism-based; conditions: in vivo, 168 h, dose 10-50 mg/kg, time 7 day
# [4] = Selectivity index, ratio of CC50 African green monkey Vero cells to IC50 for Trypanosoma cruzi epimastigotes; assay type: toxicity; conditions: read-out: Selectivity Index
# Trypanosoma cruzi [5] = assay: Anti-chagasic activity against Trypanosoma cruzi trypomastigotes infected in C3H mouse assessed as active behaviour at 10 mg/kg, po treated 10 days post infection measured on day 19; assay type: functional, organism-based; conditions: time 9.0 day
# Trypanosoma cruzi [6] = assay: Antitrypanosomal activity against Trypanosoma cruzi epimastigotes measured after 72 hrs by Neubauer hemocytometer counting method; assay type: functional, organism-based
# Trypanosoma cruzi [7] = assay: Anti-chagasic activity against Trypanosoma cruzi trypomastigotes infected in C3H mouse assessed as reduction in parasitemia at 10 mg/kg, po treated 10 days post infection for 7 consecutive days by Neubauer chamber counting method relative to control; assay type: functional; design: scale not given: the % may be the effect or the level left; conditions: time 7 day
# Trypanosoma cruzi [8] = assay: Antitrypanosomal activity against bloodstream Trypanosoma cruzi trypomastigotes measured after 24 hrs by Neubauer chamber method; assay type: functional, organism-based
# [9] = Selectivity index, ratio of CC50 African green monkey Vero cells to IC50 for Trypanosoma cruzi trypomastigotes; assay type: toxicity; conditions: read-out: Selectivity Index
# Trypanosoma cruzi [10] = assay: Anti-chagasic activity against Trypanosoma cruzi trypomastigotes infected in C3H mouse assessed as physically healthy with shiny appearance at 10 mg/kg, po treated 10 days post infection measured on day 19; assay type: functional, organism-based; conditions: time 9.0 day
# Trypanosoma cruzi [11] = assay: Anti-chagasic activity against Trypanosoma cruzi trypomastigotes infected in C3H mouse assessed as well-groomed fur and alert at 10 mg/kg, po treated 10 days post infection measured on day 19; assay type: functional, organism-based; conditions: time 9.0 day
# [12] = Cytotoxicity against African green monkey Vero cells assessed as reduction in cell viability measured after 24 hrs by MTT assay; assay type: cell-based; conditions: chlorocebus sabaeus
# Trypanosoma cruzi [13] = assay: Antitrypanosomal activity against […] expressing beta-galactosidase infected in african green monkey VERO cells incubated for 5 days measured by microplate reader assay; assay type: functional, organism-based; conditions: 120 h
# [14] = Selectivity index, ratio of CC50 African green monkey Vero cells to IC50 for Trypanosoma cruzi amastigotes; assay type: toxicity; conditions: read-out: Selectivity Index
Structure (SMILES),Activity (Trypanosoma cruzi [1]),Activity (Trypanosoma cruzi [2]),Activity [3],selectivity ratio [4],Activity (Trypanosoma cruzi [5]),IC50 (Trypanosoma cruzi [6]) [µM],Activity (Trypanosoma cruzi [7]) [%],IC50 (Trypanosoma cruzi [8]) [µM],selectivity ratio [9],Activity (Trypanosoma cruzi [10]),Activity (Trypanosoma cruzi [11]),CC50 at 24 h [12] [µM],IC50 (Trypanosoma cruzi [13]) [µM],selectivity ratio [14]
O=C(Cn1ccnc1[N+](=O)[O-])NCc1ccccc1 [BENZNIDAZOLE],inactive,inactive,Non-Toxic,122,Active,5.8,58.9,34.1,20.7,Active,Active,706,3.6,196
O=C(O)c1c(CN2CCN(CCO)CC2)nc2ccc(Cl)cc2c1-c1ccccc1,–,–,–,8.6,–,4.2,–,56.1,0.6,–,–,36,–,–
O=C(O)c1c(CNCCN2CCOCC2)nc2ccc(Cl)cc2c1-c1ccccc1,–,–,–,19.7,–,11.2,–,11.9,18.5,–,–,221,–,–
